The values below come from patent US5344841A, “Bis-(hydroxylakylamino)-anthraquinone inhibitors of protein kinase C” (Sphinx Pharmaceuticals Corporation, priority 1992, dated 1994).

Test [1] relates to 8226/ADR adriamycin resistant line of 8226 cells. As to the kind of experiment: Human tumor growth inhibition, 3H-thymidine incorporation, 8226/ADR. Format: cell-based. The following applies: 8226/ADR vs 8226. The source says: (§1) MCF-7 a human breast tumor cell line, and MCF-7/ADR an adriamycin resistant line of MCF-7 cells were obtained from the National Cancer Institute, Frederick, Md. NHEK a human keratinocyte cell line was obtained from Clonetic Corp., San Diego, Calif. 8226 a human myeloma cell line, 8226/MT a Mitoxantrone resistant line of 8226 cells, and 8226 ADR an adriamycin resistant line of 8226 cells were obtained from Dr. Bill Dalton, Arizona Cancer Center, Tuscon, Ariz.
(§2) Human tumor cells are trypsinized (0.05% trypsin, GIBCO), counted with a hemacytometer and seeded at a concentration of 10,000 cells/well in a 96 well microtiter plate. After allowing cells to attach to the surface overnight, the culture medium is aspirated and replaced with 100 μl of fresh medium. Test agents are diluted to determine dose response at 2× final concentration and added in quadruplicate at 100 μl/well to bring the total volume of each well to 200 μl. The microtiter plate is then incubated at 37° C. 5% CO2 overnight (18-24 hrs) before ^3 H-thymidine is added at a concentration of 0.5 μCi/well in 50 μl culture medium. The plate is incubated again for 4 hrs under the same conditions as above. Supernatant is then aspirated and 50 μl trypsin (0.05%, GIBCO) is added to each well. Cells are checked microscopically to determine detachment from surfaces, and plates are then harvested with a cell harvester (PHD, Cambridge Technology, Inc.) Filter papers corresponding to wells are placed in scintillation vials and counted to determine the amount of ^3 H-thymidine incorporated by the cells. Test agent response is compared to a positive control of cell wells with culture media only to determine the IC50. IC50 is the concentration of test compound required to inhibit fifty percent of the incorporation of ^3 H-thymidine into proliferating cells not exposed to test agent. Uptake of ^3 H-thymidine is a standard test for measuring the metabolism of cells. Cells which are actively proliferating take up ^3 H-thymidine, whereas cells that are not proliferating take up ^3 H-thymidine at much slower rates or not at all. Test agents that inhibit the uptake of ^3 H-thymidine thus slow the growth of cells.

For test [2], the system named is MCF-7/ADR adriamycin resistant line of MCF-7 cells. As to the kind of experiment: Human tumor growth inhibition, 3H-thymidine incorporation, MCF-7/ADR. The following applies: MCF-7/ADR vs MCF-7. The class given is cell-based.
From the text: as §1, §2
(In general: Incorporation of labelled thymidine or its analogues reports DNA synthesis.)

For another test, the system named is P388 murine leukemia. As to the kind of experiment: P388 leukemia tumor assay in mice, survival time. The class given is in vivo, mouse. The conditions noted are these: for % T/C p388 Leukemia: survival time. The source says:
P388 Leukemia Tumors. Mice were young adult, pathogen-free, BALA/c×DBA/2 F1 (i.e., CD2F1) females purchased from Charles River Laboratories. The tumor line was the P388 murine leukemia, ascites form, obtained from the National Cancer Institute (NCI) Tumor Repository (Frederick, Md.). The tumor was maintained in the serial passage in mice by periodic intraperitoneal (ip) implantation. For this experiment, 10^6 hemacytometer-counted P388 murine leukemia cells were implanted ip into mice on Day 0. The mice were randomized into one untreated control group of 20 and 15 test groups of six mice each. All drug treatment was delivered ip on the basis of the average body weight of each group. […] Body weights were recorded on Days 1, 5, 9, 11, and 18. Deaths were recorded daily. Dying mice were necropsied, and the presence or absence of ascites or splenomegaly was recorded. Drug effectiveness was assessed on the basis of the survival time. Results were expressed as a percentage of the control survival time (Survival Time=T/C×100%; T=test animals; C=control animals). The criterion for effectiveness was determined by: T/C×100≥125 percent.

The subject of the next test is NHEK human keratinocytes. As to the kind of experiment: Human keratinocyte inhibition, 3H-thymidine incorporation. Format: cell-based. The protocol: Human tumor cells are trypsinized (0.05% trypsin, GIBCO), counted with a hemacytometer and seeded at a concentration of 10,000 cells/well in a 96 well microtiter plate. After allowing cells to attach to the surface overnight, the culture medium is aspirated and replaced with 100 μl of fresh medium. Test agents are diluted to determine dose response at 2× final concentration and added in quadruplicate at 100 μl/well to bring the total volume of each well to 200 μl. The microtiter plate is then incubated at 37° C. 5% CO2 overnight (18-24 hrs) before ^3 H-thymidine is added at a concentration of 0.5 μCi/well in 50 μl culture medium. The plate is incubated again for 4 hrs under the same conditions as above. […] Cells are checked microscopically to determine detachment from surfaces, and plates are then harvested with a cell harvester (PHD, Cambridge Technology, Inc.) Filter papers corresponding to wells are placed in scintillation vials and counted to determine the amount of ^3 H-thymidine incorporated by the cells. […]
Proliferating keratinocytes (NHEK cells purchased from Clonetics, Inc. San Diego, Calif.) in second passage were grown in Keratinocyte Growth Medium (KGM) (Clonetics, Inc.) Cells were trypsinized with 0.025% trypsin (Clonetics), counted with a hemacytometer (Scientific Products), and seeded at a concentration of 2,500 cells/well in a 96 well microtiter plate. […]

The test system of test [3] is MCF-7 human breast tumor cell line. As to the kind of experiment: Human tumor growth inhibition, 3H-thymidine incorporation, MCF-7. The class given is cell-based. The following applies: 3H-thymidine uptake; read-out: IC50 MCF-7.
From the text: as §1, §2

Test [4] concerns 8226/ADR adriamycin resistant line of 8226 cells. As to the kind of experiment: Human tumor growth inhibition, 3H-thymidine incorporation, 8226/ADR. The conditions noted are these: 3H-thymidine uptake. The class given is cell-based.
In a further test the test system is Melanotic Melanoma B16. As to the kind of experiment: Melanotic melanoma B16 test in mice, survival time. The class given is in vivo, mouse. The conditions noted are these: 100 mg/kg ip once daily for nine days. The protocol:
Melanotic Melanoma B16 Test. The animals used were B6 C3 F1 mice, all of one sex, weighing a minimum of 18 g for males and 17 g for females and all within a 4 g weight range at the start of the test. The test group comprised 9 or 10 mice. The tumor was implanted in each of the test mice by the subcutaneous injection of 0.5 ml of a tumor homogenate prepared by homogenizing a 1 g portion of melanotic melanoma in 10 ml of cold physiological saline. Compound 1a-1 suspended in hydroypropylcellulose was administered intraperitoneally at a dose of 100 mg/kg once daily for nine consecutive days staring on Day 1 relative to the day of tumor inoculation (Day 0). The control mice received injections of hydroxyproplcellulose vehicle only. The mice were weighed and survivors were recorded on a regular basis for sixty days. The median survival times and the ratio of the median survival times for treated (T) to control (C) mice were calculated. The median survival time of the nontreated rumored mice ranged from 15 to 17 days. Drug effectiveness was assessed on the basis of survival time. Results were expressed as a percentage of the control survival time (Survival Time T/C×100%; T=test animals; C=control animals). The criterion for effectiveness was determined by T/C×100≥125 percent.

The test system of test [5] is 8226/MT Mitoxantrone resistant line of 8226 cells. As to the kind of experiment: Human tumor growth inhibition, 3H-thymidine incorporation, 8226/MT.
The test system of test [6] is 8226 human myeloma cell line. As to the kind of experiment: Human tumor growth inhibition, 3H-thymidine incorporation, 8226. The conditions noted are these: 3H-thymidine uptake, read-out: IC50 8226. The class given is cell-based.
From the text: as §1, §2

For test [7], the system named is MCF-7/ADR adriamycin resistant line of MCF-7 cells. As to the kind of experiment: Human tumor growth inhibition, 3H-thymidine incorporation, MCF-7/ADR. The class given is cell-based. The following applies: NCI/ADR-RES, 3H-thymidine uptake.

For `CCN(CC)CC(O)CNc1ccc(NCC(O)CCl)c2c1C(=O)c1ccccc1C2=O` (stereo not drawn) [Compound 1a-1], in test [1], the “Resistance Ratio (8226/ADR)” value was found to be 0.08. Moreover, in test [2], the “Resistance Ratio (IC50 MCF-7/ADR to IC50 MCF-7)” value is 2. For the same molecule, the “% T/C p388 Leukemia” value was 140% with P388 murine leukemia (67 mg/kg, Q1D × 9, ip) and 130% with P388 murine leukemia (150 mg/kg Q1D × 9, ip). Further, the “survival time of mice (in words)” value in the test with P388 murine leukemia (all dosages and schedules) is “effectively increased the survival time”. Besides, the IC50 with NHEK human keratinocytes turned out to be 0.16 µM; in test [3] it was 0.25 µM; in [4], 0.08 µM; in [5] (Homo sapiens, read-out: IC50 8226/MT), 0.24 µM; in test [6], 1 µM; in test [7] it was 0.5 µM. In addition, the “% T/C (B16 median survival time)” value in the test with Melanotic Melanoma B16 is 129%. The “effect on survival time of mice (in words)” value in the test on Melanotic Melanoma B16 was “effective for increasing survival time of the mice”. Also, in test [5] (8226/MT vs 8226), the “Resistance Ratio (8226/MT)” value was 0.24. In test [5] (text wording of ratio), the “ratio of IC50 for 8226 cells to IC50 for 8226/MT cells” value is recorded as 0.24.
